Where two headings read alike, the source gives them in different places.
Key:
NTRK2 = NTRK2 (Homo sapiens (Human), UniProt Q16620); assay: NTRK2 inhibition (IC50); type: biochemical
AURKB = AURKB (Homo sapiens (Human), UniProt Q96GD4); assay: Promega K192 cell-based NanoBRET kinase occupancy assay
Protocol: (§1) Similarly, the selectivity of CDD-3031 for NTRK kinases was evaluated in a kinase occupancy assay (Promega K192 cell-based NanoBRET assay) using 192 kinases (Table 4).

AURKC = AURKC (Homo sapiens (Human), UniProt Q9UQB9); assay: as above
Protocol: as §1

CLK1 = CLK1 (Homo sapiens (Human), UniProt P49759); assay: as above
Protocol: as §1

CSNK1A1L = CSNK1A1L (Homo sapiens (Human), UniProt Q8N752); assay: as above
Protocol: as §1

DYRK1A = DYRK1A (Homo sapiens (Human), UniProt Q13627); assay: as above
Protocol: as §1

FLT3 = FLT3 (Homo sapiens (Human), UniProt P36888); assay: as above
Protocol: as §1

ITK = ITK (Homo sapiens (Human), UniProt Q08881); assay: as above
Protocol: as §1

MAP3K12 = MAP3K12 (Homo sapiens (Human), UniProt Q12852); assay: as above
Protocol: as §1

NEK5 = NEK5 (Homo sapiens (Human), UniProt Q6P3R8); assay: as above
Protocol: as §1

NTRK1 = NTRK1 (Homo sapiens (Human), UniProt P04629); assay: as above
Protocol: as §1

STK36 = STK36 (Homo sapiens (Human), UniProt Q9NRP7); assay: as above
Protocol: as §1

endometriotic lesions = assay: Endometriosis mouse model, lesion efficacy; type: in vivo; conditions: 10 mg/kg, excised lesions
Protocol: FIGS. 17A-17F depict the robust efficacy of the inhibitory compounds of the present disclosure as NTRK2 inhibitors for inhibition of endometriotic lesion growth in mice utilizing CDD-3132 as an example. FIG. 17A provides a schematic overview of the experiment performed. FIGS. 17B-17C provide photographs showing excised lesions with administration of a control (FIG. 17B) or CDD-3132 (10 mg/kg/day) (FIG. 17C).
In one aspect, the present disclosure provides exemplary data relating to the administration of NTRK2 inhibitors in a mouse model of endometriosis (FIG. 14). In certain embodiments, the recipient mouse is administered the NTRK2 inhibitor and/or controls on day 14 after intraperitoneal injection of endometrium of the donor mouse. In certain embodiments, the recipient mouse is sacrificed and quantitatively assessed on day 28.

[1] = Metabolic stability in human liver microsomes (HLM)

FLT3, sequence (P36888 27-993): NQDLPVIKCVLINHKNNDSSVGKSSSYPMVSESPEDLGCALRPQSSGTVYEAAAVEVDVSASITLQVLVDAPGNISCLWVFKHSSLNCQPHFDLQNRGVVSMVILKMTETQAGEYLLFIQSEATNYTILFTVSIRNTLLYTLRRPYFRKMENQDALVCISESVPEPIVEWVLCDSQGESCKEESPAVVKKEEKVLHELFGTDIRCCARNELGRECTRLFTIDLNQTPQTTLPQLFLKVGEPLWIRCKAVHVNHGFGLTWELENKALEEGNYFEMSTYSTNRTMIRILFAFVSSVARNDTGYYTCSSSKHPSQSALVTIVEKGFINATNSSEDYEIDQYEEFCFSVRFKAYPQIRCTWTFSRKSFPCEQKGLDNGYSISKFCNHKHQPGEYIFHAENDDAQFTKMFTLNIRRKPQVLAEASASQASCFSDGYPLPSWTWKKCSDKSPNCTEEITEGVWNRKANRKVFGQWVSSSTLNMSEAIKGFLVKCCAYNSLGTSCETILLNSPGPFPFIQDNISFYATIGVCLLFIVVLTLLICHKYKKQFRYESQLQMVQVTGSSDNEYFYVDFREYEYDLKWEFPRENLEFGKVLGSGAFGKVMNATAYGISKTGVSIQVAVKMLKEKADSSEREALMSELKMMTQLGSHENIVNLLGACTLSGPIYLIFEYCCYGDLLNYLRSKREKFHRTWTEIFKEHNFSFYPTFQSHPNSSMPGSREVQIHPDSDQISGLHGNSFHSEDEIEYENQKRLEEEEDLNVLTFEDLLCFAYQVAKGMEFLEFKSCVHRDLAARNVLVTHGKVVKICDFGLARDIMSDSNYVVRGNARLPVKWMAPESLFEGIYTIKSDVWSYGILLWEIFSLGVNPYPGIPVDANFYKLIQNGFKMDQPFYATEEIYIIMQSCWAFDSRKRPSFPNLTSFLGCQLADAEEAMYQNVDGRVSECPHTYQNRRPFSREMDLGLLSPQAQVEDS
CLK1, sequence (P49759 whole entry): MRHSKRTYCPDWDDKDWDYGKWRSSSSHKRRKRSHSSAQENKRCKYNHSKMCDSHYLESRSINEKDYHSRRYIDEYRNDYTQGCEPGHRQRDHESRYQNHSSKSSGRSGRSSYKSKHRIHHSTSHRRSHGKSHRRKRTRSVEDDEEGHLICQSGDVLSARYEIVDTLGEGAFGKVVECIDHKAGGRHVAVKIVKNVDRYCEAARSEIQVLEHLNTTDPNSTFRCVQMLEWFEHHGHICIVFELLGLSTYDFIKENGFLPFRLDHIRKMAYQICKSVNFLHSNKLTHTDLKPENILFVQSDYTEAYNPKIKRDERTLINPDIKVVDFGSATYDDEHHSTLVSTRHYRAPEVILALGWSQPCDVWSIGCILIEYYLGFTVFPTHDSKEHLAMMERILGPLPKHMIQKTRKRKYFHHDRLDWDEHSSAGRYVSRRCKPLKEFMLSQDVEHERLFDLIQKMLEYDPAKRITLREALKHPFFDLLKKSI
CSNK1A1L, sequence (Q8N752 whole entry): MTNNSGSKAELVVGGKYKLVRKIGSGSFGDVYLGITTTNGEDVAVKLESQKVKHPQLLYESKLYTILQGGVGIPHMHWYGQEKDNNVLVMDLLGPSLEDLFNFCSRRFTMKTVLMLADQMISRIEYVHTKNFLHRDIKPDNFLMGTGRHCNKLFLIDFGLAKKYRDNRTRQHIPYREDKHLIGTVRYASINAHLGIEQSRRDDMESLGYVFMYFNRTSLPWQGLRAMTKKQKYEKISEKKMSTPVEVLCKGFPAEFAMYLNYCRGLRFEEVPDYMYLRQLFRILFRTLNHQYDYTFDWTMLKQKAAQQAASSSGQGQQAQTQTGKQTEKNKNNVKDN
MAP3K12, sequence (Q12852 whole entry): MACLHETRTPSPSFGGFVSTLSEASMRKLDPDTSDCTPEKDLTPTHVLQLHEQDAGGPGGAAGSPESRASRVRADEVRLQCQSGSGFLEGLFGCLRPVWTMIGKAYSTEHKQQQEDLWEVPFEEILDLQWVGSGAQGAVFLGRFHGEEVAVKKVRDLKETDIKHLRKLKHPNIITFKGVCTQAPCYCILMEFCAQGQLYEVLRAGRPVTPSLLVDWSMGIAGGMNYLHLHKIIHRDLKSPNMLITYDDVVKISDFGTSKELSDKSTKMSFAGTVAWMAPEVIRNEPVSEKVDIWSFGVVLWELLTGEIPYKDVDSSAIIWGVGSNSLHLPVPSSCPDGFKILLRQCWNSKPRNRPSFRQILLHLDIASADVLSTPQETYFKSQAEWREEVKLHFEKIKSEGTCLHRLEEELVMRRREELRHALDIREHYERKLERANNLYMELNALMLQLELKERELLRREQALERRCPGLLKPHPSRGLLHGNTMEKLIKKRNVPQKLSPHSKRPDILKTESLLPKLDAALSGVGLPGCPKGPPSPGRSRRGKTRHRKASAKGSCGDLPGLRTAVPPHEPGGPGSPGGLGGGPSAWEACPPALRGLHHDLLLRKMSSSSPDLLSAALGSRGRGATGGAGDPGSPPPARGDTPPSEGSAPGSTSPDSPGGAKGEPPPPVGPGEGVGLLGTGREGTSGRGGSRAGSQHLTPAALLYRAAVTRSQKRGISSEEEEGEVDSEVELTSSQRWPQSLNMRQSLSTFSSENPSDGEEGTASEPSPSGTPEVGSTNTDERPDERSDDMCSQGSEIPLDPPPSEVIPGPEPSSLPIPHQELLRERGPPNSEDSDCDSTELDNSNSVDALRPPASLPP
NEK5, sequence (Q6P3R8 whole entry): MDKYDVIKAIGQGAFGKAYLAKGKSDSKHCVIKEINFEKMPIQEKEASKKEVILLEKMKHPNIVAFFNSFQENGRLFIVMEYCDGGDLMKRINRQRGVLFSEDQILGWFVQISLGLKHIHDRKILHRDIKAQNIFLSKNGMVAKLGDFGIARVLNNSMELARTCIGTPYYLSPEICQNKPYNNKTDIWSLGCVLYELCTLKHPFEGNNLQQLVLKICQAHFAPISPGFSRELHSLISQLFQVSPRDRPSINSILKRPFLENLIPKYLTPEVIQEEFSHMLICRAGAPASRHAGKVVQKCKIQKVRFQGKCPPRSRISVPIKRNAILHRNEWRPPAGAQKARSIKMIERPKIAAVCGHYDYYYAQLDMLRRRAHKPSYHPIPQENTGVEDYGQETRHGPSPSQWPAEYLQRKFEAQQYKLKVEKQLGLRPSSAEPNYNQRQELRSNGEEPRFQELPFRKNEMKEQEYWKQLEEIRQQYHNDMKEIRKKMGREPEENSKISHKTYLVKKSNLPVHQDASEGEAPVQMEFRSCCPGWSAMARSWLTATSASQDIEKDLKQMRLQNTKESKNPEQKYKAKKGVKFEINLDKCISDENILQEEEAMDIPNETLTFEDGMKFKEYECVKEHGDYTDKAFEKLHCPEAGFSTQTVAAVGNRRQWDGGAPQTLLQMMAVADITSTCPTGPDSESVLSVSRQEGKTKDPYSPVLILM
AURKC, sequence (Q9UQB9 whole entry): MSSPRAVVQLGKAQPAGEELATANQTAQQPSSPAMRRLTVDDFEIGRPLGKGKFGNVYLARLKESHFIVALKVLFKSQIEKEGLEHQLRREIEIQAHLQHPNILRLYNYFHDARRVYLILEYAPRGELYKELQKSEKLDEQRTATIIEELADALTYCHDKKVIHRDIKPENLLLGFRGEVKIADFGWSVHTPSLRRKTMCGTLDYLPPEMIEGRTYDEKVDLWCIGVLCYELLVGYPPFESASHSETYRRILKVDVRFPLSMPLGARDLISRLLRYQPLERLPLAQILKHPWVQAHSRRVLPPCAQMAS
NTRK1, sequence (P04629 33-796): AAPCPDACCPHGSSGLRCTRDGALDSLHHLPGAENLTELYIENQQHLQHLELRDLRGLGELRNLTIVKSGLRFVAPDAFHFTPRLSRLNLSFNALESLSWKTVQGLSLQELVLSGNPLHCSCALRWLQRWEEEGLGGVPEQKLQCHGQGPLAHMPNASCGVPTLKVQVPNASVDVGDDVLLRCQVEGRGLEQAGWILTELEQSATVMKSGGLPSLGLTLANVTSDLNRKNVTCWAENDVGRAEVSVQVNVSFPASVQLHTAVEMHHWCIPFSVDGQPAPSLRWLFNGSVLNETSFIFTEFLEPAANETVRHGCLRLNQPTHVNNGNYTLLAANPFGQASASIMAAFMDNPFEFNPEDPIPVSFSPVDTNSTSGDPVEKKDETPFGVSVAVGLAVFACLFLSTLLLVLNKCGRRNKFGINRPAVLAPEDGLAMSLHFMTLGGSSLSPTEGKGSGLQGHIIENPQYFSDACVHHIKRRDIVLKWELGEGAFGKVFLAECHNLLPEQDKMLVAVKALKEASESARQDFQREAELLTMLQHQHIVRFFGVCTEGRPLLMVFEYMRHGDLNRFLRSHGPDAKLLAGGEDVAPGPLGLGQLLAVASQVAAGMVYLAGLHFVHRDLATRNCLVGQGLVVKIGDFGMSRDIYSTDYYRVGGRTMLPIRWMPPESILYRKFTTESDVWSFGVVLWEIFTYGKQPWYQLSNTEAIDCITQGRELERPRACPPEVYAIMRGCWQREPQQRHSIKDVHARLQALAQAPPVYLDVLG
AURKB, sequence (Q96GD4 whole entry): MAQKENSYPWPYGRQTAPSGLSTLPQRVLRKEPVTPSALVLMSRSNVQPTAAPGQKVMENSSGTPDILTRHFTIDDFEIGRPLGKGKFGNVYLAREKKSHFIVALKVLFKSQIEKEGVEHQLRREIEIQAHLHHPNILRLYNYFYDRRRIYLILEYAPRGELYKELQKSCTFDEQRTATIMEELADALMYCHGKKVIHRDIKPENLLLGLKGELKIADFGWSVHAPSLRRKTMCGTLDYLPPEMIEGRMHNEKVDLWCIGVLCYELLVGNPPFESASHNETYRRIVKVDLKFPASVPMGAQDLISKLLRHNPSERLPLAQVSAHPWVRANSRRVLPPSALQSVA

`CN(Cc1ccn2ncc(C(N)=O)c2c1)C(=O)Nc1ccc(OC(F)(F)F)cc1` [CDD-3031, 5-((1-methyl-3-(4-(trifluoromethoxy)phenyl)ureido)methyl)pyrazolo[1,5-a]pyridine-3-carboxamide] showed an IC50 (NTRK2) of 11.9 nM, a receptor occupancy at 1 µM (AURKB; average, read-out: AURKB kinase occupancy, Average (%)) of 7.37% and a receptor occupancy at 1 µM (AURKB; replicate 1, read-out: AURKB kinase occupancy, Replicate 1 (%)) of 3.71%. For the same compound, the receptor occupancy at 1 µM (AURKB; replicate 2, read-out: AURKB kinase occupancy, Replicate 2 (%)) was 11%, the receptor occupancy at 1 µM (AURKC; average, read-out: AURKC kinase occupancy, Average (%)) was 4.09% and the receptor occupancy at 1 µM (AURKC; replicate 1, read-out: AURKC kinase occupancy, Replicate 1 (%)) was -7.48%. For the same compound, the receptor occupancy at 1 µM (AURKC; replicate 2, read-out: AURKC kinase occupancy, Replicate 2 (%)) was 15.7%, the receptor occupancy at 1 µM (CLK1; average, read-out: CLK1 kinase occupancy, Average (%)) was 4.92% and the receptor occupancy at 1 µM (CLK1; replicate 1, read-out: CLK1 kinase occupancy, Replicate 1 (%)) was 3.65%. It also gave a receptor occupancy at 1 µM (CLK1; replicate 2, read-out: CLK1 kinase occupancy, Replicate 2 (%)) of 6.2%, a receptor occupancy at 1 µM (CSNK1A1L; average, read-out: CSNK1A1L kinase occupancy, Average (%)) of 4.58% and a receptor occupancy at 1 µM (CSNK1A1L; replicate 1, read-out: CSNK1A1L kinase occupancy, Replicate 1 (%)) of 9.24%. The receptor occupancy at 1 µM (CSNK1A1L; replicate 2, read-out: CSNK1A1L kinase occupancy, Replicate 2 (%)) was -0.08%, the receptor occupancy at 1 µM (DYRK1A; average, read-out: DYRK1A kinase occupancy, Average (%)) was 6.5% and the receptor occupancy at 1 µM (DYRK1A; replicate 1, read-out: DYRK1A kinase occupancy, Replicate 1 (%)) was 8.58%. The receptor occupancy at 1 µM (DYRK1A; replicate 2, read-out: DYRK1A kinase occupancy, Replicate 2 (%)) was 4.42%, the receptor occupancy at 1 µM (FLT3; average, read-out: FLT3 kinase occupancy, Average (%)) was 7.12% and the receptor occupancy at 1 µM (FLT3; replicate 1, read-out: FLT3 kinase occupancy, Replicate 1 (%)) was -10.3%. For the same compound, the receptor occupancy at 1 µM (FLT3; replicate 2, read-out: FLT3 kinase occupancy, Replicate 2 (%)) was 24.6%, the receptor occupancy at 1 µM (ITK; average, read-out: ITK kinase occupancy, Average (%)) was 5.61% and the receptor occupancy at 1 µM (ITK; replicate 1, read-out: ITK kinase occupancy, Replicate 1 (%)) was 14.2%. The receptor occupancy at 1 µM (ITK; replicate 2, read-out: ITK kinase occupancy, Replicate 2 (%)) was -2.94%, the receptor occupancy at 1 µM (MAP3K12; average, read-out: MAP3K12 kinase occupancy, Average (%)) was 7.58% and the receptor occupancy at 1 µM (MAP3K12; replicate 1, read-out: MAP3K12 kinase occupancy, Replicate 1 (%)) was 21.2%. For the same compound, the receptor occupancy at 1 µM (MAP3K12; replicate 2, read-out: MAP3K12 kinase occupancy, Replicate 2 (%)) was -6.05%, the receptor occupancy at 1 µM (NEK5; average, read-out: NEK5 kinase occupancy, Average (%)) was 5.02% and the receptor occupancy at 1 µM (NEK5; replicate 1, read-out: NEK5 kinase occupancy, Replicate 1 (%)) was -0.81%. For the same compound, the receptor occupancy at 1 µM (NEK5; replicate 2, read-out: NEK5 kinase occupancy, Replicate 2 (%)) was 10.8%, the receptor occupancy at 1 µM (NTRK1; average, read-out: NTRK1 kinase occupancy, Average (%)) was 73.2% and the receptor occupancy at 1 µM (NTRK1; replicate 1, read-out: NTRK1 kinase occupancy, Replicate 1 (%)) was 71.4%. The receptor occupancy at 1 µM (NTRK1; replicate 2, read-out: NTRK1 kinase occupancy, Replicate 2 (%)) was 75%, the receptor occupancy at 1 µM (STK36; average, read-out: STK36 kinase occupancy, Average (%)) was 4.82% and the receptor occupancy at 1 µM (STK36; replicate 1, read-out: STK36 kinase occupancy, Replicate 1 (%)) was -3.75%. For the same compound, the receptor occupancy at 1 µM (STK36; replicate 2, read-out: STK36 kinase occupancy, Replicate 2 (%)) was 13.4%, the endometriotic lesion growth (endometriotic lesions) was “inhibiting endometriotic lesion growth” and the half-life [1] was over 16.7 h.
